Bridge positions count the residues as written; N and C are the ends. Square brackets hold non-standard residues; d marks the D form. Peptide text beside a SMILES is read from it. 1Nal = N[C@@H](Cc1cccc2ccccc12)C(=O)O
Key:
human Kv1.3 (CHO) = target: T1, human Kv1.3 (CHO) (Homo sapiens, UniProt P22001); experiment: cell-based
T1 construct: expressed in transfected cells; host or cells: CHO

human Kv1.1 (HEK293) = target: T2, human Kv1.1 (HEK293) (Homo sapiens, UniProt Q09470); experiment: cell-based
T2 construct: expressed in transfected cells; host or cells: HEK293
T2 sequence (Q09470 whole entry): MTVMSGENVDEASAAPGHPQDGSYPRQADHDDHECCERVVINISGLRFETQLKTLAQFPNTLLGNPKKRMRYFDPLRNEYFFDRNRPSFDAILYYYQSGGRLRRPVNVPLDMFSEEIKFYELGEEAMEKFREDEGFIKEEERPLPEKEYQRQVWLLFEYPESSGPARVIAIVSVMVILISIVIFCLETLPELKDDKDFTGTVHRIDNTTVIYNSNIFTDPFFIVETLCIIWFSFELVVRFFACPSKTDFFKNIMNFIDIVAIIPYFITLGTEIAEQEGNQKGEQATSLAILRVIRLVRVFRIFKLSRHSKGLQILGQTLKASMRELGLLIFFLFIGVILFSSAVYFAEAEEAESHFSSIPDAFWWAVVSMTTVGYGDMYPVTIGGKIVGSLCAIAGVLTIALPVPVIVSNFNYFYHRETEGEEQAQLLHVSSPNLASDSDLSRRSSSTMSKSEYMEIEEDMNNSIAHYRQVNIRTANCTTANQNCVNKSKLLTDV

T1 sequence (P22001 whole entry): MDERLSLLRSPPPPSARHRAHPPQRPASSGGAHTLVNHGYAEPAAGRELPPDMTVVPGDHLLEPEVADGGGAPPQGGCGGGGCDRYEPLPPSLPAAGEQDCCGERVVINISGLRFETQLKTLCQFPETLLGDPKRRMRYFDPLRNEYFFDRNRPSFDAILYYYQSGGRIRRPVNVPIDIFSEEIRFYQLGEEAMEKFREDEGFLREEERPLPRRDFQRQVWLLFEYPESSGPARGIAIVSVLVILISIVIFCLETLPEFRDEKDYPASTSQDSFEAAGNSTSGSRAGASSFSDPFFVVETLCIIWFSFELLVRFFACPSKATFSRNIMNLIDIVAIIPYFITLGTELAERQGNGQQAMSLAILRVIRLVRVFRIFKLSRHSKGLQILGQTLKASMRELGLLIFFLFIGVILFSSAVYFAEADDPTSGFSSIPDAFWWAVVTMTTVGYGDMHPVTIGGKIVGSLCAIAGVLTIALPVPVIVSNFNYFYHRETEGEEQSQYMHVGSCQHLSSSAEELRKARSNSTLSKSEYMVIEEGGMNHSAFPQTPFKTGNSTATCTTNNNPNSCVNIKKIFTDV

## CC[C@H](C)[C@@H]1NC(=O)[C@H](CCCCN)NC(=O)[C@@H](NC(=O)[C@H](CCCCN)NC(=O)[C@@H](NC(=O)[C@H](CC(N)=O)NC(=O)[C@@H](NC(=O)[C@H](CCCNC(=N)N)NC(=O)[C@@H](NC(=O)CN)C(C)C)[C@@H](C)CC)C(C)C)CSSC[C@@H]2NC(=O)[C@H](CCCCN)NC(=O)CNC(=O)[C@H](Cc3ccccc3)NC(=O)[C@H](CCCNC(=N)N)NC(=O)[C@H](CCSC)NC(=O)CNC(=O)[C@H](C)NC(=O)[C@H](CCCCN)NC(=O)[C@H](CCCCN)NC(=O)[C@@H]3CSSC[C@@H](C(=O)N[C@H](C(=O)N4CCC[C@H]4C(=O)N[C@@H](CCCCN)C(=O)O)[C@@H](C)O)NC(=O)[C@H](Cc4c[nH]cn4)NC(=O)[C@H](CSSC[C@H](NC(=O)[C@H](CCC(N)=O)NC(=O)[C@H](CCCNC(=N)N)NC(=O)[C@H](CO)NC1=O)C(=O)N[C@@H](CC(C)C)C(=O)N[C@@H](CCC(=O)O)C(=O)N1CCC[C@H]1C(=O)N3)NC(=O)[C@H](CCCCN)NC(=O)CNC(=O)[C@H](CC(N)=O)NC(=O)[C@H](CCSC)NC2=O [I3R] (H-GVRINVKCKISRQCLEPCKKAGMRFGKCMNGKCHCTPK-OH; disulfide 8-28, 14-33, 18-35)
Human Kv1.3 (CHO)
  IC50: 0.0199 nM
Human Kv1.1 (HEK293)
  IC50: 0.00247 nM

## CC[C@H](C)[C@@H]1NC(=O)[C@H](CCCCN)NC(=O)[C@@H](NC(=O)[C@H](CCCCN)NC(=O)[C@@H](NC(=O)[C@H](CC(N)=O)NC(=O)[C@H](C)NC(=O)[C@@H](NC(=O)[C@@H](NC(=O)CN)C(C)C)[C@@H](C)CC)C(C)C)CSSC[C@@H]2NC(=O)[C@H](CCCCN)NC(=O)CNC(=O)[C@H](Cc3ccccc3)NC(=O)[C@H](CCCNC(=N)N)NC(=O)[C@H](CCSC)NC(=O)CNC(=O)[C@H](C)NC(=O)[C@H](CCCCN)NC(=O)[C@H](CCCCN)NC(=O)[C@@H]3CSSC[C@@H](C(=O)N[C@H](C(=O)N4CCC[C@H]4C(=O)N[C@@H](CCCCN)C(=O)O)[C@@H](C)O)NC(=O)[C@H](Cc4c[nH]cn4)NC(=O)[C@H](CSSC[C@H](NC(=O)[C@H](CCC(N)=O)NC(=O)[C@H](CCCNC(=N)N)NC(=O)[C@H](CO)NC1=O)C(=O)N[C@@H](CC(C)C)C(=O)N[C@@H](CCC(=O)O)C(=O)N1CCC[C@H]1C(=O)N3)NC(=O)[C@H](CCCCN)NC(=O)CNC(=O)[C@H](CC(N)=O)NC(=O)[C@H](CCSC)NC2=O [I4A] (H-GVIANVKCKISRQCLEPCKKAGMRFGKCMNGKCHCTPK-OH; disulfide 8-28, 14-33, 18-35)
Human Kv1.3 (CHO)
  IC50: 0.195 nM
Human Kv1.1 (HEK293)
  IC50: 0.0169 nM

## CC[C@H](C)[C@@H]1NC(=O)[C@H](CCCCN)NC(=O)[C@@H](NC(=O)[C@H](CCCCN)NC(=O)[C@@H](NC(=O)[C@H](CC(N)=O)NC(=O)[C@H](CCC(=O)O)NC(=O)[C@@H](NC(=O)[C@@H](NC(=O)CN)C(C)C)[C@@H](C)CC)C(C)C)CSSC[C@@H]2NC(=O)[C@H](CCCCN)NC(=O)CNC(=O)[C@H](Cc3ccccc3)NC(=O)[C@H](CCCNC(=N)N)NC(=O)[C@H](CCSC)NC(=O)CNC(=O)[C@H](C)NC(=O)[C@H](CCCCN)NC(=O)[C@H](CCCCN)NC(=O)[C@@H]3CSSC[C@@H](C(=O)N[C@H](C(=O)N4CCC[C@H]4C(=O)N[C@@H](CCCCN)C(=O)O)[C@@H](C)O)NC(=O)[C@H](Cc4c[nH]cn4)NC(=O)[C@H](CSSC[C@H](NC(=O)[C@H](CCC(N)=O)NC(=O)[C@H](CCCNC(=N)N)NC(=O)[C@H](CO)NC1=O)C(=O)N[C@@H](CC(C)C)C(=O)N[C@@H](CCC(=O)O)C(=O)N1CCC[C@H]1C(=O)N3)NC(=O)[C@H](CCCCN)NC(=O)CNC(=O)[C@H](CC(N)=O)NC(=O)[C@H](CCSC)NC2=O [I4E] (H-GVIENVKCKISRQCLEPCKKAGMRFGKCMNGKCHCTPK-OH; disulfide 8-28, 14-33, 18-35)
Human Kv1.3 (CHO)
  IC50: 0.0157 nM
Human Kv1.1 (HEK293)
  IC50: 0.00319 nM

## CC[C@H](C)[C@@H]1NC(=O)[C@H](CCCCN)NC(=O)[C@@H](NC(=O)[C@H](CCCCN)NC(=O)[C@@H](NC(=O)[C@H](CC(N)=O)NC(=O)[C@H](Cc2cccc3ccccc23)NC(=O)[C@@H](NC(=O)[C@@H](NC(=O)CN)C(C)C)[C@@H](C)CC)C(C)C)CSSC[C@@H]2NC(=O)[C@H](CCCCN)NC(=O)CNC(=O)[C@H](Cc3ccccc3)NC(=O)[C@H](CCCNC(=N)N)NC(=O)[C@H](CCSC)NC(=O)CNC(=O)[C@H](C)NC(=O)[C@H](CCCCN)NC(=O)[C@H](CCCCN)NC(=O)[C@@H]3CSSC[C@@H](C(=O)N[C@H](C(=O)N4CCC[C@H]4C(=O)N[C@@H](CCCCN)C(=O)O)[C@@H](C)O)NC(=O)[C@H](Cc4c[nH]cn4)NC(=O)[C@H](CSSC[C@H](NC(=O)[C@H](CCC(N)=O)NC(=O)[C@H](CCCNC(=N)N)NC(=O)[C@H](CO)NC1=O)C(=O)N[C@@H](CC(C)C)C(=O)N[C@@H](CCC(=O)O)C(=O)N1CCC[C@H]1C(=O)N3)NC(=O)[C@H](CCCCN)NC(=O)CNC(=O)[C@H](CC(N)=O)NC(=O)[C@H](CCSC)NC2=O [I4Nal] (H-GVI[1Nal]NVKCKISRQCLEPCKKAGMRFGKCMNGKCHCTPK-OH; disulfide 8-28, 14-33, 18-35)
Human Kv1.3 (CHO)
  IC50: 0.015 nM
Human Kv1.1 (HEK293)
  IC50: < 0.00152 nM

## CC[C@H](C)[C@@H]1NC(=O)[C@H](CCCCN)NC(=O)[C@@H](NC(=O)[C@H](CCCCN)NC(=O)[C@@H](NC(=O)[C@H](CC(N)=O)NC(=O)[C@H](CCCNC(=N)N)NC(=O)[C@@H](NC(=O)[C@@H](NC(=O)CN)C(C)C)[C@@H](C)CC)C(C)C)CSSC[C@@H]2NC(=O)[C@H](CCCCN)NC(=O)CNC(=O)[C@H](Cc3ccccc3)NC(=O)[C@H](CCCNC(=N)N)NC(=O)[C@H](CCSC)NC(=O)CNC(=O)[C@H](C)NC(=O)[C@H](CCCCN)NC(=O)[C@H](CCCCN)NC(=O)[C@@H]3CSSC[C@@H](C(=O)N[C@H](C(=O)N4CCC[C@H]4C(=O)N[C@@H](CCCCN)C(=O)O)[C@@H](C)O)NC(=O)[C@H](Cc4c[nH]cn4)NC(=O)[C@H](CSSC[C@H](NC(=O)[C@H](CCC(N)=O)NC(=O)[C@H](CCCNC(=N)N)NC(=O)[C@H](CO)NC1=O)C(=O)N[C@@H](CC(C)C)C(=O)N[C@@H](CCC(=O)O)C(=O)N1CCC[C@H]1C(=O)N3)NC(=O)[C@H](CCCCN)NC(=O)CNC(=O)[C@H](CC(N)=O)NC(=O)[C@H](CCSC)NC2=O [I4R] (H-GVIRNVKCKISRQCLEPCKKAGMRFGKCMNGKCHCTPK-OH; disulfide 8-28, 14-33, 18-35)
Human Kv1.3 (CHO)
  IC50: 0.0104 nM
Human Kv1.1 (HEK293)
  IC50: 0.00192 nM

## CC[C@H](C)[C@H](NC(=O)[C@@H](NC(=O)CN)C(C)C)C(=O)N[C@H](C(=O)N[C@@H](CC(N)=O)C(=O)N[C@H](C(=O)N[C@@H](CCCCN)C(=O)N[C@H]1CSSC[C@@H]2NC(=O)[C@H](CCCCN)NC(=O)CNC(=O)[C@H](Cc3ccccc3)NC(=O)[C@H](CCCNC(=N)N)NC(=O)[C@H](CCSC)NC(=O)CNC(=O)[C@H](C)NC(=O)[C@H](CCCCN)NC(=O)[C@H](CCCCN)NC(=O)[C@@H]3CSSC[C@@H](C(=O)N[C@H](C(=O)N4CCC[C@H]4C(=O)N[C@@H](CCCCN)C(=O)O)[C@@H](C)O)NC(=O)[C@H](Cc4c[nH]cn4)NC(=O)[C@H](CSSC[C@H](NC(=O)[C@H](CCC(N)=O)NC(=O)[C@H](CCCNC(=N)N)NC(=O)[C@H](CO)NC(=O)[C@H](C)NC(=O)[C@H](CCCCN)NC1=O)C(=O)N[C@@H](CC(C)C)C(=O)N[C@@H](CCC(=O)O)C(=O)N1CCC[C@H]1C(=O)N3)NC(=O)[C@H](CCCCN)NC(=O)CNC(=O)[C@H](CC(N)=O)NC(=O)[C@H](CCSC)NC2=O)C(C)C)[C@@H](C)CC [I10A] (H-GVIINVKCKASRQCLEPCKKAGMRFGKCMNGKCHCTPK-OH; disulfide 8-28, 14-33, 18-35)
Human Kv1.3 (CHO)
  IC50: 0.0912 nM
Human Kv1.1 (HEK293)
  IC50: 0.00446 nM

## CC[C@H](C)[C@H](NC(=O)[C@@H](NC(=O)CN)C(C)C)C(=O)N[C@H](C(=O)N[C@@H](CC(N)=O)C(=O)N[C@H](C(=O)N[C@@H](CCCCN)C(=O)N[C@H]1CSSC[C@@H]2NC(=O)[C@H](CCCCN)NC(=O)CNC(=O)[C@H](Cc3ccccc3)NC(=O)[C@H](CCCNC(=N)N)NC(=O)[C@H](CCSC)NC(=O)CNC(=O)[C@H](C)NC(=O)[C@H](CCCCN)NC(=O)[C@H](CCCCN)NC(=O)[C@@H]3CSSC[C@@H](C(=O)N[C@H](C(=O)N4CCC[C@H]4C(=O)N[C@@H](CCCCN)C(=O)O)[C@@H](C)O)NC(=O)[C@H](Cc4c[nH]cn4)NC(=O)[C@H](CSSC[C@H](NC(=O)[C@H](CCC(N)=O)NC(=O)[C@H](CCCNC(=N)N)NC(=O)[C@H](CO)NC(=O)[C@H](CCC(=O)O)NC(=O)[C@H](CCCCN)NC1=O)C(=O)N[C@@H](CC(C)C)C(=O)N[C@@H](CCC(=O)O)C(=O)N1CCC[C@H]1C(=O)N3)NC(=O)[C@H](CCCCN)NC(=O)CNC(=O)[C@H](CC(N)=O)NC(=O)[C@H](CCSC)NC2=O)C(C)C)[C@@H](C)CC [I10E] (H-GVIINVKCKESRQCLEPCKKAGMRFGKCMNGKCHCTPK-OH; disulfide 8-28, 14-33, 18-35)
Human Kv1.3 (CHO)
  IC50: 0.12 nM
Human Kv1.1 (HEK293)
  IC50: 0.0335 nM

## CC[C@H](C)[C@H](NC(=O)[C@@H](NC(=O)CN)C(C)C)C(=O)N[C@H](C(=O)N[C@@H](CC(N)=O)C(=O)N[C@H](C(=O)N[C@@H](CCCCN)C(=O)N[C@H]1CSSC[C@@H]2NC(=O)[C@H](CCCCN)NC(=O)CNC(=O)[C@H](Cc3ccccc3)NC(=O)[C@H](CCCNC(=N)N)NC(=O)[C@H](CCSC)NC(=O)CNC(=O)[C@H](C)NC(=O)[C@H](CCCCN)NC(=O)[C@H](CCCCN)NC(=O)[C@@H]3CSSC[C@@H](C(=O)N[C@H](C(=O)N4CCC[C@H]4C(=O)N[C@@H](CCCCN)C(=O)O)[C@@H](C)O)NC(=O)[C@H](Cc4c[nH]cn4)NC(=O)[C@H](CSSC[C@H](NC(=O)[C@H](CCC(N)=O)NC(=O)[C@H](CCCNC(=N)N)NC(=O)[C@H](CO)NC(=O)[C@H](CCCNC(=N)N)NC(=O)[C@H](CCCCN)NC1=O)C(=O)N[C@@H](CC(C)C)C(=O)N[C@@H](CCC(=O)O)C(=O)N1CCC[C@H]1C(=O)N3)NC(=O)[C@H](CCCCN)NC(=O)CNC(=O)[C@H](CC(N)=O)NC(=O)[C@H](CCSC)NC2=O)C(C)C)[C@@H](C)CC [I10R] (H-GVIINVKCKRSRQCLEPCKKAGMRFGKCMNGKCHCTPK-OH; disulfide 8-28, 14-33, 18-35)
Human Kv1.3 (CHO)
  IC50: 0.0117 nM
Human Kv1.1 (HEK293)
  IC50: 0.00173 nM

Reference: patent US20090299044A1 (priority 2006, published 2009)
